# Measured values taken from patent publication US12059000B1, “Use of erythritol compositions as mammal-safe insecticides” (Drexel University, priority 2020, dated 2024).
# Entries after “also recorded” stand apart in the source; their conditions may differ.
# Key:
# fruit flies [1] = assay: Comparison of erythritol with other sweet alcohols, fly longevity; type: in vivo, Drosophila melanogaster; conditions: 1 M in standard fly food, 17 days
# Experimental: An experiment was conducted to compare the effectiveness of erythritol with other human-safe sweet alcohols: D-mannitol, maltitol, sucrose, and xylitol. The concentration of all sweet alcohols were 1M.
# Flies were raised for 17 days on standard fly food that contained 1 M concentrations of each sweetener treatment. Death of flies was recorded daily as before; each treatment was replicated on three vials of 10 flies each for 30 subjects/treatment. Differences in longevity were analyzed using the Kaplan-Meier survival analysis log rank test, making all pairwise comparisons among treatments.
# [2] = humans, even in high concentrations; cited from earlier work
# Drosophila melanogaster [3] = assay: Erythritol concentration trials on fly longevity; type: in vivo
# Experimental: Standard fly foods were prepared as previously described, and then were treated with 2M, 1M, 0.5M and 0.1M concentrations of erythritol, using 0.5M sucrose as control. 0 to 24 hour-old Drosophila were placed on these foods and mortality was recorded daily for 35 days as above. Analyses were conducted with SPSS software v. 20 (IBM corporation 2011). Fly longevity data were analyzed using survival analysis with right-hand censoring of subjects that lived to the end of the study or were lost for reasons other than death. Test were run for differences in survival distributions [Pr(flies alive) versus insect age] using the log-rank (Mantel-Cox) test to make all pairwise comparisons among treatments within each experiment.
# fruit flies [4] = conditions: 0.5 M erythritol food, previous work; cited from earlier work
# R. flavipes workers = assay: Termite survival experiment on erythritol-treated paper; type: in vivo, Reticulitermes flavipes
# Experimental: Termites used in the survival and choice experiments were collected from three field colonies in Scotland Run Park (39.66° N, 75.05° W) in Clayton, NJ between April and May 2019. After collection, colonies were maintained in plastic containers with soil and wood from the collection site as a substrate in laboratory conditions (20.8±0.9° C., 49±7% RH). Termites used in the consumption experiment were collected from a single field colony at Cobb's Creek Park (39.94° N, 75.24° W) in Philadelphia, PA during September of 2018. Workers were removed from the log and housed within 24 h of collection in 9 cm diameter petri dishes containing damp paper towel as a food source. Dishes were placed in an incubator at 26° C. (relative humidity varied between 40 and 60% across trials, but was consistent among all treatments within each trial). Each petri dish contained 10 workers. Termites used in all experiments measured 3-4 mm in length.
# For the survival experiment, unbleached, brown paper towels (12 cmx 24 cm, cat no. 01801, Kimberly-Clark Corporation, Neenah, WI), were completely submerged for 15 s in solution of distilled water, erythritol (100% purity, NOW foods, Bloomingdale, IL) of the below-specified concentrations, and 0.05% Brilliant Blue R-250 dye (cat. no 27816, Sigma-Aldrich, St. Louis, MO). The erythritol concentrations used were: 0 M (control), 0.25 M, 0.5 M, 0.75 M, 1.0 M, and 1.25 M. The treated paper towels were removed from solution and allowed to dry horizontally on racks before being cut into squares with an area of 144 cm^2. […]
# Following the pretrial period, the experiment was set up: pretrial paper towels were removed and replaced with treated paper towels of the correct erythritol treatment concentration; these were rehydrated with 750 μL of distilled water. […] Termite mortality was recorded every 24 h for 8 d.
# Analyses were performed using SPSS v. […] Mean percent mortality was calculated for each concentration across colonies at 72 and 96 h and a three parameter, best-fit sigmoid curve was fitted to the data in Sigmaplot to assess LC at these time points.
# Drosophila melanogaster [5] = assay: Drosophila longevity assay on food containing sweeteners; type: in vivo; conditions: repeat with blue food, 0.0238 g/ml
# Experimental: All animals were cultured at 25° C., kept at 50-60% humidity, and were raised under a standard 12:12 light dark cycle. For each experimental treatment, n=30 flies were tested in groups of 10 per tube, and three tubes per treatment. Tubes were kept on their side to minimize subject becoming mired in the food. Foods were replaced twice a week. The total number of fruit flies used for these experiments was 780, with 300 used for two initial trials testing mortality among store-brand sweeteners, 210 used for repeating this with blue dye and pure erythritol, 120 for choice trials and 150 for concentration trials.
# Standard Drosophila food for larval culturing consisted of water, cornmeal, yeast, molasses, and agar, as previously described (Chakraborty, et al., 2011, PLoS ONE 6: e20799). […] The addition of cornmeal and yeast assured the flies still received sufficient carbohydrates and protein in addition to any effects of the treatment additives.
# Drosophila food was combined with an equal weight/volume (0.0238 g/ml) of one non-nutritive sweetener (TRUVIA, EQUAL, SPLENDA, SWEET'NLOW, or PUREVIA) or a control nutritive sweetener (controls: sucrose or corn syrup). Wild type (Canton S) larvae were initially raised on the standard food, and 0-12 hour old adult flies were transferred to foods containing one non-nutritive sweetener or a control treatment. […] The number of dead flies were scored daily.
# Drosophila melanogaster [6] = assay: Two-way choice experiments, fly longevity; type: in vivo
# Experimental: Foods containing 2 M erythritol, 1M erythritol and 1M sucrose were prepared for paired presentations in open choice tests. In each treatment one food type contained 0.05% brilliant blue FCF (Fisher 50-727-25). The blue dye allowed visual confirmation of feeding on the dyed food in the pair. The flies were presented with access to two food choices by using a modified cotton stopper with approximately a 1.5 cm diameter hole to connect each pair of food tubes.
# The final choice treatment was between blue 2M erythritol food and non-blue 1M sucrose food (this treatment provides a comparison with the 1M erythritol/1M erythritol treatment as a test of dilution of toxicity by alternative food sources; blue guts would confirm erythritol was being consumed in the presence of sucrose). The number of flies with visible blue gut contents and mortality daily were recorded for 30 days.
# Analyses were conducted with SPSS software v. 20 (IBM corporation 2011). Fly longevity data were analyzed using survival analysis with right-hand censoring of subjects that lived to the end of the study or were lost for reasons other than death. Test were run for differences in survival distributions [Pr(flies alive) versus insect age] using the log-rank (Mantel-Cox) test to make all pairwise comparisons among treatments within each experiment.
smiles,measurement,setting,value
OC[C@@H](O)[C@@H](O)[C@H](O)[C@H](O)CO [D-mannitol],fly longevity / insecticidal effect compared to sucrose control,fruit flies [1],did not differ from sugar control; also recorded: slightly but significantly reduced longevity; also recorded: almost insignificant insecticidal effect
OC[C@@H](O)[C@@H](O[C@H]1O[C@H](CO)[C@@H](O)[C@H](O)[C@H]1O)[C@H](O)[C@@H](O)CO [maltitol],fly longevity / insecticidal effect compared to sucrose control,fruit flies [1],did not differ from sugar control; also recorded: did not differ from the control; also recorded: not effective at reducing fly longevity
"OC[C@@H](O)[C@@H](O)CO [erythritol, (2R,3S)-butane-1,2,3,4-tetraol]",safety of consumption,[2],safe to humans
same,fly longevity / insecticidal effect compared to sucrose control,fruit flies [1],toxic to fruit flies upon ingestion
same,mean fly longevity,fruit flies [1],4.7 ± 0.15 days
same,longevity compared to control food containing 0.5M sucrose,"Drosophila melanogaster [3]; 0.1M in food, 35 days",no significant difference in longevity
same,dose response of fly longevity (FIG. 4),"Drosophila melanogaster [3]; 0.1M, 0.5M, 1.0M and 2.0M in food",significant decrease in longevity of adult flies as concentration of erythritol was increased; also recorded: dose-dependent reduction in longevity
same,longevity compared to control food containing 0.5M sucrose,"Drosophila melanogaster [3]; 0.5M in food, 35 days",significant reductions in longevity
same,longevity compared to control food containing 0.5M sucrose,"Drosophila melanogaster [3]; 1M in food, 35 days",significant reductions in longevity
same,longevity compared to all other treatments,"Drosophila melanogaster [3]; 2M in food, 35 days",significant and severe effect on longevity
same,time to 50% mortality,fruit flies [4],20 days
same,"longevity of workers to 8 d, erythritol treatments versus 0M control (FIG. 9)","R. flavipes workers; 0.25-1.25 M treated paper, 8 d",All treatments are significantly different from 0 M; also recorded: differed significantly
same,lowest concentration with significant effects on longevity,"R. flavipes workers; R. flavipes workers, 8 d",0.25 M
same,time to 50% mortality,"R. flavipes workers; termites, 0.5 M erythritol filter papers",≤ 2 days
same,"longevity compared to PUREVIA, EQUAL, sucrose and corn syrup (FIG. 3)",Drosophila melanogaster [5],significant decrease in longevity
same,longevity relative to sucrose:sucrose choice (FIG. 5),Drosophila melanogaster [6]; choice between 1M sucrose and 1M erythritol,significant decrease in longevity; also recorded: significantly decreased longevity
same,longevity relative to sucrose:sucrose choice (FIG. 5),Drosophila melanogaster [6]; choice between 1M sucrose and 2M erythritol,significant decrease in longevity; also recorded: significantly reduced
OC[C@@H](O)[C@H](O)[C@@H](O)CO [xylitol],fly longevity / insecticidal effect compared to sucrose control,fruit flies [1],did not differ from sugar control; also recorded: did not differ from the control; also recorded: not effective at reducing fly longevity
